This assay has as its target WDR5 (Homo sapiens (Human), UniProt P61964). As to the kind of experiment: Surface Plasmon Resonance (SPR) assay, KD and residence time. Type of assay: binding. The following applies: surface plasmon resonance (SPR); read-out: WDR5 binding affinity (KD). On the technique in general: Surface plasmon resonance follows binding to a sensor surface in real time, without labels.

What is called Kd is the equilibrium constant for the complex coming apart.

As for `CNC1CCN(c2cc(F)c(-c3cnc(N4CCOCC4)nc3)cc2NC(=O)c2c[nH]c(=O)cc2C(F)(F)F)CC1` [Example 541, N-[4-fluoro-2-[4-(methylamino)piperidin-1-yl]-5-(2-morpholin-4-ylpyrimidin-5-yl)phenyl]-6-oxo-4-(trifluoromethyl)-1H-pyridine-3-carboxamide], the Kd came to 7.44 nM.
With `C[C@@H]1CN(c2ccc(-c3cc(NC(=O)c4cn(C)c(=O)cc4C(F)F)c(N4C[C@@H](C)N(C)[C@@H](C)C4)cc3F)cn2)CCO1` [Example 542, 4-(difluoromethyl)-N-[4-fluoro-5-[6-[(2R)-2-methylmorpholin-4-yl]pyridin-3-yl]-2-[(3R,5S)-3,4,5-trimethylpiperazin-1-yl]phenyl]-1-methyl-6-oxopyridine-3-carboxamide] the figure was 5.53 nM; with `C[C@@H]1CN(c2ncc(-c3cc(NC(=O)c4cn(C)c(=O)cc4C(F)(F)F)c(N4CCN(C)[C@@H](C)C4)cc3F)cn2)CCO1` [Example 544, N-[4-fluoro-2-[(3S)-3,4-dimethylpiperazin-1-yl]-5-[2-[(2R)-2-methylmorpholin-4-yl]pyrimidin-5-yl]phenyl]-1-methyl-6-oxo-4-(trifluoromethyl)pyridine-3-carboxamide], 1.8 nM.
With `C[C@@H]1CN(c2ncc(-c3cc(NC(=O)c4ccc(F)cc4C(F)(F)F)c(N4C[C@@H](C)N(C)[C@@H](C)C4)cc3F)cn2)CCO1` [Example 545, 4-fluoro-N-[4-fluoro-5-[2-[(2R)-2-methylmorpholin-4-yl]pyrimidin-5-yl]-2-[(3R,5S)-3,4,5-trimethylpiperazin-1-yl]phenyl]-2-(trifluoromethyl)benzamide] the figure was 3.4 nM; with `C[C@@H]1CN(c2cc(F)c(-c3cnc(N4CCNCC4)nc3)cc2NC(=O)c2ccc(F)cc2C(F)(F)F)C[C@H](C)N1C` [Example 546, 4-fluoro-N-[4-fluoro-5-(2-piperazin-1-ylpyrimidin-5-yl)-2-[(3R,5S)-3,4,5-trimethylpiperazin-1-yl]phenyl]-2-(trifluoromethyl)benzamide], 2.1 nM; with `C[C@@H]1CN(c2cc(F)c(-c3ccc(N4CCOCC4)nc3)cc2NC(=O)c2ccc(F)cc2C(F)(F)F)C[C@H](C)N1C` [Example 547, 4-fluoro-N-[4-fluoro-5-(6-morpholin-4-ylpyridin-3-yl)-2-[(3R,5S)-3,4,5-trimethylpiperazin-1-yl]phenyl]-2-(trifluoromethyl)benzamide], 1.5 nM.
Turning to `C[C@@H]1CN(c2cc(F)c(-c3ccc(N4CCNCC4)cc3)cc2NC(=O)c2c[nH]c(=O)cc2C(F)(F)F)C[C@H](C)N1C` [Example 549, N-[4-fluoro-5-(4-piperazin-1-ylphenyl)-2-[(3R,5S)-3,4,5-trimethylpiperazin-1-yl]phenyl]-6-oxo-4-(trifluoromethyl)-1H-pyridine-3-carboxamide], the dissociation constant (Kd) worked out at 0.8 nM.
In the case of `C[C@@H]1CN(c2cc(F)c(-c3ccc(F)c(C(N)=O)c3)cc2NC(=O)c2c[nH]c(=O)cc2C(F)(F)F)C[C@H](C)N1C` [Example 550, N-[5-(3-carbamoyl-4-fluorophenyl)-4-fluoro-2-[(3R,5S)-3,4,5-trimethylpiperazin-1-yl]phenyl]-6-oxo-4-(trifluoromethyl)-1H-pyridine-3-carboxamide], the Kd came to 2.5 nM.
Turning to `C[C@@H]1CN(c2cc(F)c(-c3ccc(C(N)=O)c(F)c3)cc2NC(=O)c2c[nH]c(=O)cc2C(F)(F)F)C[C@H](C)N1C` [Example 551, N-[5-(4-carbamoyl-3-fluorophenyl)-4-fluoro-2-[(3R,5S)-3,4,5-trimethylpiperazin-1-yl]phenyl]-6-oxo-4-(trifluoromethyl)-1H-pyridine-3-carboxamide], the Kd turned out to be 0.6 nM.
The figure for `C[C@@H]1CN(c2cc(F)c(-c3ccc(F)c(C(N)=O)c3)cc2NC(=O)c2c[nH]c(=O)cc2C(F)F)C[C@H](C)N1C` [Example 552, N-[5-(3-carbamoyl-4-fluorophenyl)-4-fluoro-2-[(3R,5S)-3,4,5-trimethylpiperazin-1-yl]phenyl]-4-(difluoromethyl)-6-oxo-1H-pyridine-3-carboxamide] is 3.1 nM; for `C[C@@H]1CN(c2cc(F)c(-c3ccc(C(N)=O)c(F)c3)cc2NC(=O)c2c[nH]c(=O)cc2C(F)F)C[C@H](C)N1C` [Example 553, N-[5-(4-carbamoyl-3-fluorophenyl)-4-fluoro-2-[(3R,5S)-3,4,5-trimethylpiperazin-1-yl]phenyl]-4-(difluoromethyl)-6-oxo-1H-pyridine-3-carboxamide] it is 1 nM.
With `C[C@@H]1CN(c2cc(F)c(-c3ccc(F)c(C(N)=O)c3)cc2NC(=O)c2ccc(F)cc2C(F)(F)F)C[C@H](C)N1C` [Example 556, 2-fluoro-5-[2-fluoro-5-[[4-fluoro-2-(trifluoromethyl)benzoyl]amino]-4-[(3R,5S)-3,4,5-trimethylpiperazin-1-yl]phenyl]benzamide] the figure was 10.4 nM; with `C[C@@H]1CN(c2cc(F)c(-c3cnc(N4CCOC(C)(C)C4)nc3)cc2NC(=O)c2ccc(F)cc2C(F)(F)F)C[C@H](C)N1C` [Example 559, N-[5-[2-(2,2-dimethylmorpholin-4-yl)pyrimidin-5-yl]-4-fluoro-2-[(3R,5S)-3,4,5-trimethylpiperazin-1-yl]phenyl]-4-fluoro-2-(trifluoromethyl)benzamide], 2.92 nM; with `O=C(Nc1cc(-c2cnc(N3CCOCC3)nc2)c(F)cc1N1CCN(C2CC2)CC1)c1c[nH]c(=O)cc1C(F)(F)F` [Example 561, N-[2-(4-cyclopropylpiperazin-1-yl)-4-fluoro-5-(2-morpholin-4-ylpyrimidin-5-yl)phenyl]-6-oxo-4-(trifluoromethyl)-1H-pyridine-3-carboxamide], 23.5 nM.
With `C[C@@H]1CN(c2cc(F)c(-c3c[nH]c(=O)c(F)c3)cc2NC(=O)c2c[nH]c(=O)cc2C(F)(F)F)C[C@H](C)N1C` [Example 562, N-[4-fluoro-5-(5-fluoro-6-oxo-1H-pyridin-3-yl)-2-[(3R,5S)-3,4,5-trimethylpiperazin-1-yl]phenyl]-6-oxo-4-(trifluoromethyl)-1H-pyridine-3-carboxamide], the Kd turned out to be 0.904 nM.
The figure for `C[C@@H]1CN(c2cc(F)c(-c3cncc(NC(=O)OCc4ccccc4)c3)cc2NC(=O)c2c[nH]c(=O)cc2C(F)(F)F)C[C@H](C)N1C` [Example 563, benzyl N-[5-[2-fluoro-5-[[6-oxo-4-(trifluoromethyl)-1H-pyridine-3-carbonyl]amino]-4-[(3R,5S)-3,4,5-trimethylpiperazin-1-yl]phenyl]pyridin-3-yl]carbamate] is 3.32 nM; for `C[C@@H]1CN(c2cc(F)c(-c3cc(F)c(=O)n(C)c3)cc2NC(=O)c2c[nH]c(=O)cc2C(F)(F)F)C[C@H](C)N1C` [Example 564, N-[4-fluoro-5-(5-fluoro-1-methyl-6-oxopyridin-3-yl)-2-[(3R,5S)-3,4,5-trimethylpiperazin-1-yl]phenyl]-6-oxo-4-(trifluoromethyl)-1H-pyridine-3-carboxamide] it is 1.52 nM; for `COc1ccc(C(=O)N2CC=C(c3cc(NC(=O)c4c[nH]c(=O)cc4C(F)(F)F)c(N4C[C@@H](C)N(C)[C@@H](C)C4)cc3F)CC2)cc1` [Example 565, N-[4-fluoro-5-[1-(4-methoxybenzoyl)-3,6-dihydro-2H-pyridin-4-yl]-2-[(3R,5S)-3,4,5-trimethylpiperazin-1-yl]phenyl]-6-oxo-4-(trifluoromethyl)-1H-pyridine-3-carboxamide] it is 0.943 nM.
The figure for `C[C@@H]1CN(c2cc(F)c(-c3cnc4c(c3)CC(=O)N4)cc2NC(=O)c2c[nH]c(=O)cc2C(F)(F)F)C[C@H](C)N1C` [Example 566, N-[4-fluoro-5-(2-oxo-1,3-dihydropyrrolo[2,3-b]pyridin-5-yl)-2-[(3R,5S)-3,4,5-trimethylpiperazin-1-yl]phenyl]-6-oxo-4-(trifluoromethyl)-1H-pyridine-3-carboxamide] is 0.896 nM; for `C[C@@H]1CN(c2cc(F)c(-c3ccn(C)c(=O)c3)cc2NC(=O)c2c[nH]c(=O)cc2C(F)(F)F)C[C@H](C)N1C` [Example 567, N-[4-fluoro-5-(1-methyl-2-oxopyridin-4-yl)-2-[(3R,5S)-3,4,5-trimethylpiperazin-1-yl]phenyl]-6-oxo-4-(trifluoromethyl)-1H-pyridine-3-carboxamide] it is 1.18 nM; for `C[C@@H]1CN(c2cc(F)c(-c3ccc(=O)n(C)c3)cc2NC(=O)c2c[nH]c(=O)cc2C(F)(F)F)C[C@H](C)N1C` [Example 568, N-[4-fluoro-5-(1-methyl-6-oxopyridin-3-yl)-2-[(3R,5S)-3,4,5-trimethylpiperazin-1-yl]phenyl]-6-oxo-4-(trifluoromethyl)-1H-pyridine-3-carboxamide] it is 4.58 nM.
As to `C[C@@H]1CN(c2cc(F)c(C3=CCN(C(=O)C4CCCCC4)CC3)cc2NC(=O)c2c[nH]c(=O)cc2C(F)(F)F)C[C@H](C)N1C` [Example 569, N-[5-[1-(cyclohexanecarbonyl)-3,6-dihydro-2H-pyridin-4-yl]-4-fluoro-2-[(3R,5S)-3,4,5-trimethylpiperazin-1-yl]phenyl]-6-oxo-4-(trifluoromethyl)-1H-pyridine-3-carboxamide], the equilibrium dissociation constant (Kd) stood at 1.99 nM.
Take `COCCCN(C)C1CCN(c2cc(F)c(-c3cnc(N4CCOCC4)nc3)cc2NC(=O)c2c[nH]c(=O)cc2C(F)(F)F)C1` (stereo not drawn) [Example 572, N-[4-fluoro-2-[3-[3-methoxypropyl(methyl)amino]pyrrolidin-1-yl]-5-(2-morpholin-4-ylpyrimidin-5-yl)phenyl]-6-oxo-4-(trifluoromethyl)-1H-pyridine-3-carboxamide]: the equilibrium dissociation constant (Kd) was 113 nM.
With `C[C@@H]1CN(c2cc(F)c(C3=CCN(C(=O)c4cnccn4)CC3)cc2NC(=O)c2c[nH]c(=O)cc2C(F)(F)F)C[C@H](C)N1C` [Example 573, N-[4-fluoro-5-[1-(pyrazine-2-carbonyl)-3,6-dihydro-2H-pyridin-4-yl]-2-[(3R,5S)-3,4,5-trimethylpiperazin-1-yl]phenyl]-6-oxo-4-(trifluoromethyl)-1H-pyridine-3-carboxamide] the figure was 2.19 nM.

(Values after US11319299B2, “Substituted carboxamides as inhibitors of WDR5 protein-protein binding” (PROPELLON THERAPEUTICS INC., priority 2016, dated 2022).)
